Source: patent US5389627A, “Cephem compounds” (priority 1993, dated 1995)
Values after ≈ are worked out from the molar mass of the structure shown.

What was measured:
Experiment in all cases: In vitro antibacterial activity, minimum inhibitory concentration
Format in all cases: cell-based
E.cloacae C4009 = details: Enterobacter cloacae; E.cloacae C4009; read-out: Minimum Inhibitory Concentration (MIC)
From the text: (§1) As reference compounds, Cefotaxime (CTX), Ceftazidime (CAZ) and Cefpirome (CPR) were employed.

E.coli C4002 = details: Escherichia coli; E.coli C4002; read-out: Minimum Inhibitory Concentration (MIC)
From the text: as §1

P.mirabilis ATCC25933 = details: Proteus mirabilis; P.mirabilis ATCC25933; read-out: Minimum Inhibitory Concentration (MIC)
From the text: as §1

S.aureus C4036 = details: Staphylococcus aureus; S.aureus C4036; read-out: Minimum Inhibitory Concentration (MIC)
From the text: as §1

S.pyogenes ATCC 8668 = details: Streptococcus pyogenes, ATCC8668; S.pyogenes ATCC 8668; read-out: Minimum Inhibitory Concentration (MIC)
From the text: as §1

S.Faecalis ATCC29212 = details: Enterococcus faecalis
From the text: as §1

S.aureus Smith = details: Staphylococcus aureus; S.aureus Smith; read-out: Minimum Inhibitory Concentration (MIC)
From the text: as §1

S.pyogenes C4003 = details: Streptococcus pyogenes; S.pyogenes C4003; read-out: Minimum Inhibitory Concentration (MIC)
From the text: as §1

P.aeruginosa ATCC10145 = details: Pseudomonas aeruginosa; P.aeruginosa ATCC10145; read-out: Minimum Inhibitory Concentration (MIC)
From the text: as §1

S.typhimurium C4045 = details: Salmonella enterica; S.typhimurium C4045; read-out: Minimum Inhibitory Concentration (MIC)
From the text: as §1

K.pneumoniae C1040 = details: Klebsiella pneumoniae; K.pneumoniae C1040; read-out: Minimum Inhibitory Concentration (MIC)
From the text: as §1

S.epidermidis ATCC12228 = details: Staphylococcus epidermidis; S.epidermidis ATCC12228; read-out: Minimum Inhibitory Concentration (MIC)
From the text: as §1

E.coli ATCC10536 = details: Escherichia coli; E.coli ATCC10536; read-out: Minimum Inhibitory Concentration (MIC)
From the text: as §1

E.cloacae C4008 = details: Enterobacter cloacae; E.cloacae C4008; read-out: Minimum Inhibitory Concentration (MIC)
From the text: as §1

S.aureus ATCC29213 = details: Staphylococcus aureus; S.aureus ATCC29213; read-out: Minimum Inhibitory Concentration (MIC)
From the text: as §1

K.oxytoca C4022 = details: Klebsiella oxytoca; K.oxytoca C4022; read-out: Minimum Inhibitory Concentration (MIC)
From the text: as §1

P.rettgeri ATCC9919 = details: Providencia rettgeri; P.rettgeri ATCC9919; read-out: Minimum Inhibitory Concentration (MIC)
From the text: as §1

S.marcescens ATCC27117 = details: Serratia marcescens; S.marcescens ATCC27117; read-out: Minimum Inhibitory Concentration (MIC)
From the text: as §1

K.pneumoniae ATCC10031 = details: Klebsiella pneumoniae; K.pneumoniae ATCC10031; read-out: Minimum Inhibitory Concentration (MIC)
From the text: as §1

MRSA C2208 = details: Staphylococcus aureus; MRSA C2208; read-out: Minimum Inhibitory Concentration (MIC)
From the text: as §1

P.aeruginosa ATCC27853 = details: Pseudomonas aeruginosa; P.aeruginosa ATCC27853; read-out: Minimum Inhibitory Concentration (MIC)
From the text: as §1

S.marcescens C1052 = details: Serratia marcescens; S.marcescens C1052; read-out: Minimum Inhibitory Concentration (MIC)
From the text: as §1

E.coli ATCC25922 = details: Escherichia coli; E.coli ATCC25922; read-out: Minimum Inhibitory Concentration (MIC)
From the text: as §1

P.aeruginosa C4070 = details: Pseudomonas aeruginosa; P.aeruginosa C4070; read-out: Minimum Inhibitory Concentration (MIC)
From the text: as §1

P.aeruginosa C2027 = details: Pseudomonas aeruginosa; P.aeruginosa C2027; read-out: Minimum Inhibitory Concentration (MIC)
From the text: as §1

MIC (E.cloacae C4009) [µg/mL]	MIC (E.coli C4002) [µg/mL]	MIC (P.mirabilis ATCC25933) [µg/mL]	MIC (S.aureus C4036) [µg/mL]	MIC (S.pyogenes ATCC 8668) [µg/mL]	MIC (S.Faecalis ATCC29212) [µg/mL]	MIC (S.aureus Smith) [µg/mL]	MIC (S.pyogenes C4003) [µg/mL]	MIC (P.aeruginosa ATCC10145) [µg/mL]	MIC (S.typhimurium C4045) [µg/mL]	MIC (K.pneumoniae C1040) [µg/mL]	MIC (S.epidermidis ATCC12228) [µg/mL]	MIC (E.coli ATCC10536) [µg/mL]	MIC (E.cloacae C4008) [µg/mL]	MIC (S.aureus ATCC29213) [µg/mL]	MIC (K.oxytoca C4022) [µg/mL]	MIC (P.rettgeri ATCC9919) [µg/mL]	MIC (S.marcescens ATCC27117) [µg/mL]	MIC (K.pneumoniae ATCC10031) [µg/mL]	MIC (MRSA C2208) [µg/mL]	Compound	also measured
0.025 (≈ 0.0451 µM)	0.05 (≈ 0.0902 µM)	0.025 (≈ 0.0451 µM)	3.13 (≈ 5.64 µM)	0.004 (≈ 0.00721 µM)	> 100	1.56 (≈ 2.81 µM)	0.004 (≈ 0.00721 µM)	12.5 (≈ 22.5 µM)	0.025 (≈ 0.0451 µM)	0.025 (≈ 0.0451 µM)	0.78 (≈ 1.41 µM)	0.013 (≈ 0.0234 µM)	0.013 (≈ 0.0234 µM)	3.13 (≈ 5.64 µM)	6.25 (≈ 11.3 µM)	0.007 (≈ 0.0126 µM)	0.025 (≈ 0.0451 µM)	0.007 (≈ 0.0126 µM)	> 100	CO/N=C(\C(=O)N[C@@H]1C(=O)N2C(C(=O)[O-])=C(C[n+]3ccc4[nH]c(=NC#N)[nH]c4c3)CS[C@H]12)c1csc(N)n1 [Ex. 3, 7-β-[(Z)-2-(2-Aminothiazol-4-yl)-2-methoxyiminoacetamido]-3-[2-(1H,3H)-cyanoimine-imidazo[4,5-c]pyridiniummethyl]-3-cephem-4-carboxylate]	MIC (P.aeruginosa ATCC27853): 6.25 µg/mL (≈ 11.3 µM); MIC (S.marcescens C1052): 0.05 µg/mL (≈ 0.0902 µM); MIC (E.coli ATCC25922): 0.05 µg/mL (≈ 0.0902 µM); MIC (P.aeruginosa C4070): 12.5 µg/mL (≈ 22.5 µM); MIC (P.aeruginosa C2027): 6.25 µg/mL (≈ 11.3 µM)
0.05 (≈ 0.09 µM)	0.1 (≈ 0.18 µM)	0.025 (≈ 0.045 µM)	3.13 (≈ 5.63 µM)	0.007 (≈ 0.0126 µM)	> 100	3.13 (≈ 5.63 µM)	0.007 (≈ 0.0126 µM)	12.5 (≈ 22.5 µM)	0.05 (≈ 0.09 µM)	0.025 (≈ 0.045 µM)	1.56 (≈ 2.81 µM)	0.05 (≈ 0.09 µM)	0.05 (≈ 0.09 µM)	3.13 (≈ 5.63 µM)	12.5 (≈ 22.5 µM)	0.013 (≈ 0.0234 µM)	0.05 (≈ 0.09 µM)	0.013 (≈ 0.0234 µM)	> 100	CO/N=C(\C(=O)N[C@@H]1C(=O)N2C(C(=O)[O-])=C(C[n+]3ccc4[nH]c(=NC#N)[nH]c4c3)CS[C@H]12)c1nsc(N)n1 [Ex. 4, 7-β-[(Z)-2-(5-Amino-1,2,4-thiadiazol-3-yl)-2-methoxyiminoacetamido]-3-[2-(1H,3H)-cyanoimine-imidazo[4,5-c]pyridiniummethyl]-3-cephem-4-carboxylate]	MIC (P.aeruginosa ATCC27853): 25 µg/mL (≈ 45 µM); MIC (S.marcescens C1052): 0.05 µg/mL (≈ 0.09 µM); MIC (E.coli ATCC25922): 0.1 µg/mL (≈ 0.18 µM); MIC (P.aeruginosa C4070): 12.5 µg/mL (≈ 22.5 µM); MIC (P.aeruginosa C2027): 6.25 µg/mL (≈ 11.2 µM)
0.013 (≈ 0.0238 µM)	0.025 (≈ 0.0458 µM)	0.025 (≈ 0.0458 µM)	3.13 (≈ 5.74 µM)	0.007 (≈ 0.0128 µM)	> 100	3.13 (≈ 5.74 µM)	0.004 (≈ 0.00733 µM)	1.56 (≈ 2.86 µM)	0.025 (≈ 0.0458 µM)	0.007 (≈ 0.0128 µM)	1.56 (≈ 2.86 µM)	0.007 (≈ 0.0128 µM)	0.013 (≈ 0.0238 µM)	3.13 (≈ 5.74 µM)	1.56 (≈ 2.86 µM)	0.007 (≈ 0.0128 µM)	0.025 (≈ 0.0458 µM)	0.007 (≈ 0.0128 µM)	> 100	CO/N=C(\C(=O)N[C@@H]1C(=O)N2C(C(=O)[O-])=C(C[n+]3ccc4c(c3)[nH]c(=O)n4C)CS[C@H]12)c1nsc(N)n1 [Ex. 6, 7-β-[(Z)-2-(5-Amino-1,2,4-thiadiazol-3-yl)-2-methoxyiminoacetamido]-3-[1-methyl-2-(3H)-oxo-imidazo[4,5-c]pyridiniummethyl]-3-cephem-4-carboxylate]	MIC (P.aeruginosa ATCC27853): 3.13 µg/mL (≈ 5.74 µM); MIC (S.marcescens C1052): 0.05 µg/mL (≈ 0.0916 µM); MIC (E.coli ATCC25922): 0.025 µg/mL (≈ 0.0458 µM); MIC (P.aeruginosa C4070): 3.13 µg/mL (≈ 5.74 µM); MIC (P.aeruginosa C2027): 1.56 µg/mL (≈ 2.86 µM)
0.1 (≈ 0.193 µM)	6.25 (≈ 12.1 µM)	0.1 (≈ 0.193 µM)	1.56 (≈ 3.01 µM)	0.1 (≈ 0.193 µM)	> 100	6.25 (≈ 12.1 µM)	0.2 (≈ 0.386 µM)	12.5 (≈ 24.2 µM)	0.1 (≈ 0.193 µM)	1.56 (≈ 3.01 µM)	3.13 (≈ 6.05 µM)	0.025 (≈ 0.0483 µM)	0.1 (≈ 0.193 µM)	0.78 (≈ 1.51 µM)	1.56 (≈ 3.01 µM)	0.5 (≈ 0.966 µM)	0.1 (≈ 0.193 µM)	0.025 (≈ 0.0483 µM)	> 100	Nc1nc(/C(=N/O)C(=O)N[C@@H]2C(=O)N3C(C(=O)[O-])=C(C[n+]4ccc5[nH]c(=O)[nH]c5c4)CS[C@H]23)ns1 [Ex. 7, 7-β-[(Z)-2-(5-Amino-1,2,4-thiadiazol-3-yl)-2-hydroxyiminoacetamido]-3-[2-(1H, 3H)-oxo-imidazo[4,5-c]pyridiniummethyl]-3-cephem-4-carboxylate]	MIC (P.aeruginosa ATCC27853): 50 µg/mL (≈ 96.6 µM); MIC (S.marcescens C1052): 0.2 µg/mL (≈ 0.386 µM); MIC (E.coli ATCC25922): 0.05 µg/mL (≈ 0.0966 µM); MIC (P.aeruginosa C4070): 50 µg/mL (≈ 96.6 µM); MIC (P.aeruginosa C2027): 6.25 µg/mL (≈ 12.1 µM)
